Test results reported in US10981902B2 (Merck Sharp & Dohme Corp., priority 2017, dated 2021).

target: T1, human M4 muscarinic acetylcholine receptor (Homo sapiens, UniProt P08173); assay: human FLIPR-based M4 PAM assay (calcium mobilization, CHO-K1 cells with human M4 receptor and Gαqi5); format: cell-based; conditions: inflection point (IP) of dose response curve, acetylcholine added at 20% of maximum response, read-out: M4 FLIPPR Hu IP
T1 construct: expressed in transfected cells; host or cells: CHO-K1
T1 sequence (P08173 1-479): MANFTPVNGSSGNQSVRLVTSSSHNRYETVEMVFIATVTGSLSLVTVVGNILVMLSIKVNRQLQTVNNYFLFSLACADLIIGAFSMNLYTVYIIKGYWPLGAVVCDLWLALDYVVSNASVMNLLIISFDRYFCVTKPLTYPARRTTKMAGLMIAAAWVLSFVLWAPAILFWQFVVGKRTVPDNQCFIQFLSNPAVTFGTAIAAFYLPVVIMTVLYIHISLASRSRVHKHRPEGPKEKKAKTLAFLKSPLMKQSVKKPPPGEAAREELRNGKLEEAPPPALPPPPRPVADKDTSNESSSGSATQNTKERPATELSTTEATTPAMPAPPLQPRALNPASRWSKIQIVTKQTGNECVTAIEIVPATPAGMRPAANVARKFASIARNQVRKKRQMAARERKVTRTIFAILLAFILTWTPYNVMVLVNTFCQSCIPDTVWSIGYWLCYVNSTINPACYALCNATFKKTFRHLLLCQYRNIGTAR
Summary of the method: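 CHO-K1 cells stably expressing human M4 and Gαqi5, dye-loaded ~1 h at 37 °C, read on FLIPR Tetra. Test compound added at increasing concentrations 4 min before acetylcholine at an EC20 concentration, sometimes followed by an EC70 addition. Dose-response curves fit to a 4-parameter logistic; result is the curve inflection point.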

| SMILES | EC50 |
| --- | --- |
| CC(C)(C)Cc1ncc(-c2ccc(C(F)F)nc2-c2ccn3cnnc3c2)o1 [Example 30, 5-(2-([1,2,4]triazolo-[4,3-a]pyridin-7-yl)-6-(difluoromethyl)-pyridin-3-yl)-2-neo-pentyloxazole] | 86 nM |
| Cc1ccc(-c2cnc(Cc3ccccc3)o2)c(-c2ccc3cccnc3c2)n1 [Example 47, 2-benzyl-5-(6-methyl-2-(quinolin-7-yl)pyridin-3-yl)oxazole] | 24 nM |
| CN1Cc2ccc(-c3nc(C#N)ccc3-c3cnc(CC4(O)CCCC4)o3)cc2C1=O [Example 81, 5-(2-((1-hydroxycyclopentyl)methyl)oxazol-5-yl)-6-(2-methyl-3-oxoisoindolin-5-yl) picolinonitrile] | 184 nM |
| CC1(Cc2ncc(-c3ccc(C#N)nc3N3CCn4ccnc4C3)o2)CCCC1 [Example 9, 6-(5,6-dihydro-imidazo[1,2-a]-pyrazin-7(8H)-yl)-5-(2-((1-methyl-cyclopentyl)-methyl)oxazol-5-yl)picolinonitrile] | 108 nM |
| COc1cc2ccc(-c3nc(C)ccc3-c3cnc(Cc4ccc(F)cc4)o3)cc2nn1 [Example 54, 2-(4-fluorobenzyl)-5-(2-(3-methoxycinnolin-7-yl)-6-methylpyridin-3-yl)oxazole] | 45 nM |
| CC1(Cc2ncc(-c3cc4c(nc3-c3cnc5c(c3)C(=O)NC5)C(F)CC4)o2)CCCC1 (single isomer, unassigned) [Example 44, 3-(7-fluoro-3-(2-((1-methylcyclopentyl)methyl)oxazol-5-yl)-6,7-dihydro-5H-cyclopenta[b]pyridin-2-yl)-6,7-dihydro-5H-pyrrolo[3,4-b]pyridin-5-one] | 24 nM |
| CN1Cc2ccc(-c3nc(C#N)ccc3-c3cnc(CC4(F)CCCC4)o3)cc2C1=O [Example 82, 5-(2-((1-fluorocyclopentyl)methyl)oxazol-5-yl)-6-(2-methyl-3-oxoisoindolin-5-yl)picolinonitrile] | 42 nM |
| CN1Cc2ccc(-c3nc4c(cc3-c3cnc(CC5(C)CCCC5)o3)CCC4=O)cc2C1=O [Example 41, 2-(2-methyl-3-oxoisoindolin-5-yl)-3-(2-((1-methyl-cyclopentyl)-methyl)oxazol-5-yl)-5,6-dihydro-7H-cyclopenta[b]-pyridin-7-one] | 45 nM |
| CN1C(=O)c2cc(-c3nc4c(cc3-c3cnc(CC5(C)CCCC5)o3)CCC4)cnc2C1=O [Example 10, 6-methyl-3-(3-(2-((1-methylcyclo-pentyl)methyl)oxazol-5-yl)-6,7-dihydro-5H-cyclopenta[b]-pyridin-2-yl)-5H-pyrrolo[3,4-b]-pyridine-5,7(6H)-dione] | 209 nM |
| Cc1nc2cc(-c3nc(C#N)ccc3-c3cnc(CCC(F)(F)F)o3)ccc2n1C [Example 113, 6-(1,2-dimethyl-1H-benzo[d]imidazol-5-yl)-5-(2-(3,3,3-trifluoropropyl)oxazol-5-yl)picolinonitrile] | 118 nM |
| CC1(Cc2ncc(-c3cc4c(nc3-c3cnc5c(c3)C(=O)NC5)C(F)CC4)o2)CCCC1 (single isomer, unassigned) [Example 45, 3-(7-fluoro-3-(2-((1-methylcyclopentyl)methyl)oxazol-5-yl)-6,7-dihydro-5H-cyclopenta[b]pyridin-2-yl)-6,7-dihydro-5H-pyrrolo[3,4-b]pyridin-5-one] | 42 nM |
| O=C1c2cc(-c3nc4c(cc3-c3cnc(CC5CCCC5)o3)CCC4)cnc2CN1CC1CC1 [Example 52, 3-(3-(2-(cyclopentylmethyl)oxazol-5-yl)-6,7-dihydro-5H-cyclopenta[b]pyridin-2-yl)-6-(cyclopropylmethyl)-6,7-dihydro-5H-pyrrolo[3,4-b] pyridin-5-one] | 178 nM |
| CC(=O)OC1CCc2cc(-c3cnc(CC4(C)CCCC4)o3)c(-c3ccc4ccc(F)nc4c3)nc21 (stereo not drawn) [Example 5, 2-(2-fluoroquinolin-7-yl)-3-(2-((1-methylcyclopentyl)-methyl)oxazol-5-yl)-6,7-dihydro-5H-cyclopenta[b]pyridin-7-yl acetate] | 170 nM |
| COc1cc2ccc(-c3nc(C(F)F)ccc3-c3cnc(CC(C)(C)C)o3)cc2nn1 [Example 14, 5-(6-(difluoro-methyl)-2-(3-methoxycinnolin-7-yl)pyridin-3-yl)-2-neopentyloxazole] | 172 nM |

Second part, the compound after the results:

| EC50 | SMILES |
| --- | --- |
| 44 nM | Cc1cn2ccc(-c3nc(C#N)ccc3-c3cnc(CC(F)C4CC4)o3)cc2n1 (stereo not drawn) [Example 87, 5-(2-(2-cyclopropyl-2-fluoroethyl)oxazol-5-yl)-6-(2-methylimidazo [1,2-a]pyridin-7-yl) picolinonitrile] |
| 79 nM | Cc1cn2ccc(-c3nc(C#N)ccc3-c3cnc(CC4CC4)o3)cc2n1 [Example 60, 5-(2-(cyclopropylmethyl)oxazol-5-yl)-6-(2-methylimidazo[1,2-a]pyridin-7-yl)picolinonitrile] |
| 8 nM | N#Cc1ccc(-c2cnc(CC3CCCC3)o2)c(N2CCn3ccnc3C2)n1 [Example 55, 5-(2-(cyclopentylmethyl)oxazol-5-yl)-6-(5,6-dihydroimidazo[1,2-a]pyrazin-7(8H)-yl)picolinonitrile] |
| 76 nM | Cc1cn2ccc(-c3ncccc3-c3cnc(CC4(F)CCCC4)o3)cc2n1 [Example 91, 2-((1-fluorocyclopentyl)methyl)-5-(2-(2-methylimidazo [1,2-a]pyridin-7-yl)pyridin-3-yl)oxazole] |
| 63 nM | Cc1cn2ccc(-c3nc(C#N)ccc3-c3cnc(CC(F)C4CC4)o3)cc2n1 (stereo not drawn) [Example 88, 5-(2-(2-cyclopropyl-2-fluoroethyl)oxazol-5-yl)-6-(2-methylimidazo [1,2-a]pyridin-7-yl)picolinonitrile] |
| 194 nM | Cc1cn2ccc(-c3nc(C#N)ccc3-c3cnc(CC(C)C(F)(F)F)o3)cc2n1 (stereo not drawn) [Example 95, 6-(2-methylimidazo[1,2-a]pyridin-7-yl)-5-(2-(3,3,3-trifluoro-2-methylpropyl)oxazol-5-yl)picolinonitrile] |
| 93 nM | CC(C)(C)Cc1ncc(-c2ccc(C#N)nc2-c2cnc3c(c2)C(=O)N(CC2CC2)C3)o1 [Example 39, 6-(6-(cyclopropyl-methyl)-5-oxo-6,7-dihydro-5H-pyrrolo[3,4-b]-pyridin-3-yl)-5-(2-neopentyloxazol-5-yl)picolinonitrile] |
| 113 nM | CC(C)(C)Cc1ncc(-c2cc(F)cnc2-c2ccn3ccnc3c2)o1 [Example 27, 5-(5-fluoro-2-(imidazo[1,2-a]-pyridin-7-yl)-pyridin-3-yl)-2-neopentyloxazole] |
| 107 nM | Cc1nc2cc(-c3nc(C#N)ccc3-c3cnc(CC(C)(C)C)o3)ccn2n1 [Example 34, 6-(2-methyl[1,2,4]-triazolo[1,5-a]pyridin-7-yl)-5-(2-neopentyl-oxazol-5-yl)picolino-nitrile] |
| 30 nM | N#Cc1ccc(-c2cnc(CC(F)C3CC3)o2)c(-c2ccn3ccnc3c2)n1 (stereo not drawn) [Example 84, 5-(2-(2-cyclopropyl-2-fluoroethyl)oxazol-5-yl)-6-(imidazo[1,2-a]pyridin-7-yl) picolinonitrile] |
| 94 nM | N#Cc1ccc(-c2cnc(CC3CC3)o2)c(-c2ccn3ccnc3c2)n1 [Example 63, 5-(2-(cyclopropylmethyl)oxazol-5-yl)-6-(imidazo[1,2-a]pyridin-7-yl)picolinonitrile] |
| 86 nM | CC(C)(F)CCc1ncc(-c2ccc(C#N)nc2-c2ccc3cccnc3c2)o1 [Example 103, 5-(2-(3-fluoro-3-methylbutyl)oxazol-5-yl)-6-(quinolin-7-yl)picolinonitrile] |
| 101 nM | Cc1cn2ccc(-c3nc(C#N)ccc3-c3cnc(CC(C)(C)F)o3)cc2n1 [Example 86, 5-(2-(2-fluoro-2-methylpropyl)oxazol-5-yl)-6-(2-methylimidazo [1,2-a]pyridin-7-yl) picolinonitrile] |
| 42 nM | CN1Cc2ccc(-c3ncccc3-c3cnc(CC4CCCC4)o3)cc2C1=O [Example 3, 6-(3-(2-(cyclo-pentylmethyl)-oxazol-5-yl)-pyridin-2-yl)-2-methylisoindolin-1-one] |
| 137 nM | CC(Cc1ncc(-c2ccc(C#N)nc2-c2ccn3ccnc3c2)o1)C(F)F (stereo not drawn) [Example 94, 5-(2-(3,3-difluoro-2-methylpropyl)oxazol-5-yl)-6-(imidazo[1,2-a]pyridin-7-yl) picolinonitrile] |
| 105 nM | N#Cc1ccc(-c2cnc(CCC(F)(F)C(F)(F)F)o2)c(-c2ccn3ccnc3c2)n1 [Example 109, 6-(imidazo[1,2-a]pyridin-7-yl)-5-(2-(3,3,4,4,4-pentafluorobutyl)oxazol-5-yl) picolinonitrile] |
| 105 nM | FC1(Cc2ncc(-c3cccnc3-c3ccn4ccnc4c3)o2)CCCC1 [Example 78, 2-((1-fluorocyclopentyl)methyl)-5-(2-(imidazo[1,2-a]pyridin-7-yl)pyridin-3-yl) oxazole] |
| 34 nM | CC1(Cc2ncc(-c3ccc(C#N)nc3-c3ccc4cccnc4c3)o2)CCCC1 [Example 7, 5-(2-((1-methyl-cyclopentyl)methyl)-oxazol-5-yl)-6-(quinolin-7-yl)-picolinonitrile] |
| 60 nM | N#Cc1ccc(-c2cnc(CC(F)C3CC3)o2)c(-c2ccc3cccnc3c2)n1 (single isomer, unassigned) [Example 70, 5-(2-(2-cyclopropyl-2-fluoroethyl)oxazol-5-yl)-6-(quinolin-7-yl)picolinonitrile (single compound)] |
